Assay results taken from ChEMBL document CHEMBL1154658, “Novel macrocyclic inhibitors of hepatitis C NS3/4A protease featuring a 2-amino-1,3-thiazole as a P4 carbamate replacement” (J Med Chem, 2009).
pEC50, pKi: −log10 of the molar value.

Tests used:
Hepatitis C virus [1] = assay: Inhibition of HCV 1b NS3/4A protease by time-resolved fluorescence assay; parameters: species or system Hepatitis C virus subtype 1b
[2] = (§1) AUC (0 to 4 hrs) in Sprague-Dawley rat at 4 mg/kg, po; type: ADME, organism-based, Plasma; parameters: time < 4 hr, dose 4 mg/kg, route oral; conditions: Sprague-Dawley, plasma
[3] = (§2) Plasma clearance in Sprague-Dawley rat at 4 mg/kg, po; type: ADME, organism-based; parameters: dose 4 mg/kg, route oral; conditions: Sprague-Dawley, plasma
Hepatitis C virus [4] = assay: Antiviral activity against HCV 1b infected in human Huh7 cells by bicistronic replicon RNA assay in presence of 50% normal human serum; type: functional, organism-based, Hepacivirus hominis; conditions: genotype 1b, Huh-7
[5] = Oral bioavailability in Sprague-Dawley rat at 4 mg/kg; type: ADME, organism-based; conditions: in vivo
Hepatitis C virus [6] = assay: Antiviral activity against HCV 1b infected in human Huh7 cells by bicistronic replicon RNA assay in presence of 10% fetal bovine serum; type: functional, organism-based, Hepacivirus hominis; conditions: genotype 1b, Huh-7
[7] = Drug level in Sprague-Dawley rat liver at 4 mg/kg, po after 4 hrs; type: ADME, organism-based; parameters: dose 4 mg/kg, route oral; conditions: read-out: Drug uptake
Rattus norvegicus [8] = assay: as §1; type: ADME, organism-based, Plasma; parameters: time < 4 hr, dose 4 mg/kg, route oral; conditions: in vivo, 4 h
Rattus norvegicus [9] = assay: as §2; type: ADME, organism-based; parameters: dose 4 mg/kg, route oral; conditions: in vivo
[10] = AUC (0 to 4 hrs) in Sprague-Dawley rat at 5 mg/kg, po; type: ADME, organism-based, Plasma; parameters: time < 4 hr, dose 5 mg/kg, route oral; conditions: Sprague-Dawley, plasma
[11] = Drug level in Sprague-Dawley rat liver at 5 mg/kg, po after 4 hrs; type: ADME, organism-based; parameters: dose 5 mg/kg, route oral; conditions: read-out: Drug uptake
[12] = Oral bioavailability in Sprague-Dawley rat at 5 mg/kg; type: ADME, organism-based; conditions: in vivo
[13] = Inhibition of HCV NS3/4A protease; parameters: species or system Hepacivirus hominis
[14] = Inhibition of HCV 2a NS3/4A protease; parameters: species or system Hepatitis C virus subtype 2a
[15] = Plasma clearance in Sprague-Dawley rat at 4 mg/kg, iv; type: ADME, organism-based; parameters: dose 4 mg/kg, route intravenous
[16] = Inhibition of HCV 3a NS3/4A protease; parameters: species or system Hepatitis C virus subtype 3a
[17] = Bioavailability in Sprague-Dawley rat at 4 mg/kg, iv; type: ADME, organism-based; conditions: in vivo
[18] = AUC in Sprague-Dawley rat at 4 mg/kg, iv; type: ADME, organism-based; parameters: dose 4 mg/kg, route intravenous; conditions: plasma
[19] = Cmax in Sprague-Dawley rat at 4 mg/kg, iv; type: ADME, organism-based; parameters: dose 4 mg/kg, route intravenous; conditions: in vivo

Work on `C=C[C@@H]1C[C@]1(NC(=O)[C@@H]1C[C@@H]2CN1C(=O)[C@H](C1CCCC1)Nc1nc(cs1)CCC/C=C/c1cccc3c1CN(C3)C(=O)O2)C(=O)NS(=O)(=O)C1CC1.O=C(O)C(F)(F)F` yielded a pKi (Hepatitis C virus [1]) of 10.10, an AUC(0-t) at 4 h [2] of 0.7 µM·h and a CL/F [3] of 25 mL/min/kg. It also gave a pEC50 (Hepatitis C virus [4]) of 7.80, an EC90 (Hepatitis C virus [4]) of 34 nM and a bioavailability [5] of 36%. For the same molecule, the pEC50 (Hepatitis C virus [6]) was 8.70, the EC90 (Hepatitis C virus [6]) was 3 nM and the concentration at 4 h [7] was 180 nM.
`C=C[C@@H]1C[C@]1(NC(=O)[C@@H]1C[C@@H]2CN1C(=O)[C@H](C1CCCCC1)Nc1nc(cs1)CCC/C=C/c1cccc3c1CN(C3)C(=O)O2)C(=O)NS(=O)(=O)C1CC1.O=C(O)C(F)(F)F` showed a pKi (Hepatitis C virus [1]) of 10.40, an AUC (Rattus norvegicus [8]) of 0.4 µM·h and a CL (Rattus norvegicus [9]) of 17 mL/min/kg. The pEC50 (Hepatitis C virus [4]) was 7.80, the bioavailability [5] was 8% and the pEC50 (Hepatitis C virus [6]) was 8.52. For the same molecule, the concentration at 4 h [7] was 350 nM.
Work on `C=C[C@@H]1C[C@]1(NC(=O)[C@@H]1C[C@@H]2CN1C(=O)[C@H](C(C)C)Nc1nc(cs1)CCCCCc1ccc3ccnc(c3c1)O2)C(=O)NS(=O)(=O)C1CC1` yielded a pKi (Hepatitis C virus [1]) of 8.82, a pEC50 (Hepatitis C virus [4]) of 6.08 and a pEC50 (Hepatitis C virus [6]) of 6.92.
For `C=C[C@@H]1C[C@]1(NC(=O)[C@@H]1C[C@@H]2CN1C(=O)[C@H](C1CCCCC1)Nc1nc(cs1)CCCCc1ccc3ccnc(c3c1)O2)C(=O)NS(=O)(=O)C1CC1.O=C(O)C(F)(F)F`, the pKi (Hepatitis C virus [1]) was 8.89, the pEC50 (Hepatitis C virus [4]) was 6.46 and the AUC(0-t) at 4 h [10] was 4.7 µM·h. The concentration at 4 h [11] was 3400 nM and the pEC50 (Hepatitis C virus [6]) was 7.52.
With `C=C[C@@H]1C[C@]1(NC(=O)[C@@H]1C[C@@H]2CN1C(=O)[C@H](C(C)C)Nc1nc(cs1)CCCCc1ccc3ccnc(c3c1)O2)C(=O)NS(=O)(=O)C1CC1.O=C(O)C(F)(F)F` the pKi (Hepatitis C virus [1]) was 8.77, the pEC50 (Hepatitis C virus [4]) was 6.04 and the AUC(0-t) at 4 h [10] was 9.9 µM·h. It also gave a concentration at 4 h [11] of 5500 nM, a pEC50 (Hepatitis C virus [6]) of 7.22 and a bioavailability [12] of 60%.
For `C=C[C@@H]1C[C@]1(NC(=O)[C@@H]1C[C@@H]2CN1C(=O)[C@H](C(C)(C)C)NC(=O)OCCCCCc1ccc3ccnc(c3c1)O2)C(=O)NS(=O)(=O)C1CC1`, the pKi (Hepatitis C virus [1]) was 9.70, the pEC50 (Hepatitis C virus [4]) was 7.34 and the AUC(0-t) at 4 h [10] was 0.27 µM·h. The concentration at 4 h [11] was 13400 nM and the pEC50 (Hepatitis C virus [6]) was 8.06.
Molecule `C=C[C@@H]1C[C@]1(NC(=O)[C@@H]1C[C@@H]2CN1C(=O)[C@H](C(C)C)Nc1nc(cs1)CC/C=C/c1ccc3ccnc(c3c1)O2)C(=O)NS(=O)(=O)C1CC1.O=C(O)C(F)(F)F` has a pKi (Hepatitis C virus [1]) of 8.30, a pEC50 (Hepatitis C virus [4]) of 6.14 and an AUC(0-t) at 4 h [10] of 0.9 µM·h. It also gave a concentration at 4 h [11] of 2400 nM and a pEC50 (Hepatitis C virus [6]) of 7.52.
In the case of `C=C[C@@H]1C[C@]1(NC(=O)[C@@H]1C[C@@H]2CN1C(=O)[C@H](C(C)(C)C)Nc1nc(cs1)CCC/C=C/c1cccc3c1CN(C3)C(=O)O2)C(=O)NS(=O)(=O)C1CC1.O=C(O)C(F)(F)F`, the pKi (Hepatitis C virus [1]) was 9.80, the AUC (Rattus norvegicus [8]) was 0.06 µM·h and the CL (Rattus norvegicus [9]) was 85 mL/min/kg. It also gave a pEC50 (Hepatitis C virus [4]) of 7.64, a bioavailability [5] of 6% and a pEC50 (Hepatitis C virus [6]) of 8.52. For the same molecule, the concentration at 4 h [7] was 130 nM.
With `C=C[C@@H]1C[C@]1(NC(=O)[C@@H]1C[C@@H]2CN1C(=O)[C@H]([C@@H](C)CC)Nc1nc(cs1)CCC/C=C/c1cccc3c1CN(C3)C(=O)O2)C(=O)NS(=O)(=O)C1CC1.O=C(O)C(F)(F)F` the pKi [13] was 8.40, the pKi [14] was 9.40 and the clearance [15] was 17 mL/min/kg. The pKi (Hepatitis C virus [1]) was 10.40, the AUC(0-t) at 4 h [2] was 0.7 µM·h and the pKi [16] was 7.35. The bioavailability [17] was 13%, the AUC [18] was 0.7 µM·h and the CL/F [3] was 17 mL/min/kg. For the same molecule, the pEC50 (Hepatitis C virus [4]) was 7.74, the EC90 (Hepatitis C virus [4]) was 40 nM and the bioavailability [5] was 13%. For the same molecule, the Cmax [19] was 400 nM, the pEC50 (Hepatitis C virus [6]) was 8.70 and the EC90 (Hepatitis C virus [6]) was 3 nM. It also gave a concentration at 4 h [7] of 350 nM.
